The numbers were not newly measured in patent US20060051406A1, “Formulation of insoluble small molecule therapeutics in lipid-based carriers” (priority 2004, published 2006), which cites them from elsewhere.

Each structure is given as a SMILES string.

The conditions of this series: lipid transition temperature (gel to liquid crystalline phase).
As to `CCCCCCCC/C=C\CCCCCCCC(=O)OC[C@H](COP(=O)([O-])OCC[N+](C)(C)C)OC(=O)CCCCCCC/C=C\CCCCCCCC` [Dioleoylphosphatidylcholine, 1,2-dioleoyl-sn-glycero-3-phosphocholine], the Tm is −22 °C.

With `CCCCCCCCCCCCCCCC(=O)OC[C@H](COP(=O)([O-])OCC[N+](C)(C)C)OC(=O)CCCCCCCCCCCCCCC` [Dipalmitoylphosphatidylcholine], the Tm is 41 °C.

Consider `CCCCCCCCCCCCCCCCCC(=O)OC[C@H](COP(=O)([O-])OCC[N+](C)(C)C)OC(=O)CCCCCCCCCCCCCCCCC` [Distearoylphosphatidylcholine], for which the Tm was 55 °C.

`CCCCCCCCCCCCCC(=O)OC[C@H](COP(=O)([O-])OCC[N+](C)(C)C)OC(=O)CCCCCCCCCCCCC` [Dimyristoylphosphatidylcholine]: the Tm is 23 °C.
